Data as given in ChEMBL document CHEMBL2434953, “Safe and easy route for the synthesis of 1,3-dimethyl-1,2,3-triazolium salt and investigation of its anticancer activities” (2013).

Key:
Format in all cases: functional
A549 = assay: Growth inhibition of human A549 cells after 48 hrs by sulforhodamine B assay; details: A549, 48 h
SF-295 = assay: Growth inhibition of human SF295 cells after 48 hrs by sulforhodamine B assay; details: SF-295, 48 h
UACC-257 = assay: Growth inhibition of human UACC257 cells after 48 hrs by sulforhodamine B assay; details: UACC-257, 48 h
SK-MEL-28 = assay: Growth inhibition of human SK-MEL-28 cells after 48 hrs by sulforhodamine B assay; details: SK-MEL-28, 48 h
NCI-H460 = assay: Growth inhibition of human NCI-H460 cells after 48 hrs by sulforhodamine B assay; details: NCI-H460, 48 h
SW-620 = assay: Growth inhibition of human SW620 cells after 48 hrs by sulforhodamine B assay; details: SW-620, 48 h
U-251 = assay: Growth inhibition of human U251 cells after 48 hrs by sulforhodamine B assay; details: U-251, 48 h
SK-MEL-5 = assay: Growth inhibition of human SK-MEL-5 cells after 48 hrs by sulforhodamine B assay; details: SK-MEL-5, 48 h
SF-539 = assay: Growth inhibition of human SF539 cells after 48 hrs by sulforhodamine B assay; details: SF-539, 48 h
SF-268 = assay: Growth inhibition of human SF268 cells after 48 hrs by sulforhodamine B assay; details: SF-268, 48 h
KM12 = assay: Growth inhibition of human KM12 cells after 48 hrs by sulforhodamine B assay; details: KM12, 48 h
NCI-H322M = assay: Growth inhibition of human NCI-H322M cells after 48 hrs by sulforhodamine B assay
[1] = Growth inhibition of human HCC2998 cells after 48 hrs by sulforhodamine B assay; details: HCC 2998, 48 h
NCI-H522 = assay: Growth inhibition of human NCI-H522 cells after 48 hrs by sulforhodamine B assay; details: NCI-H522, 48 h
HOP-62 = assay: Growth inhibition of human HOP62 cells after 48 hrs by sulforhodamine B assay; details: HOP-62, 48 h
HCT-116 = assay: Growth inhibition of human HCT116 cells after 48 hrs by sulforhodamine B assay; details: HCT-116, 48 h
[2] = Growth inhibition of human EKVX cells after 48 hrs by sulforhodamine B assay
MDA-MB-435 = assay: Growth inhibition of human MDA-MB-435 cells after 48 hrs by sulforhodamine B assay; details: MDA-MB-435, 48 h
SK-MEL-2 = assay: Growth inhibition of human SK-MEL-2 cells after 48 hrs by sulforhodamine B assay; details: SK-MEL-2, 48 h
COLO 205 = assay: Growth inhibition of human COLO205 cells after 48 hrs by sulforhodamine B assay; details: COLO 205, 48 h
HT-29 = assay: Growth inhibition of human HT-29 cells after 48 hrs by sulforhodamine B assay; details: HT-29, 48 h
NCI-H23 = assay: Growth inhibition of human NCI-H23 cells after 48 hrs by sulforhodamine B assay; details: NCI-H23, 48 h
SNB-19 = assay: Growth inhibition of human SNB19 cells after 48 hrs by sulforhodamine B assay; details: SNB-19, 48 h
M14 = assay: Growth inhibition of human M14 cells after 48 hrs by sulforhodamine B assay; details: M14, 48 h
SNB-75 = assay: Growth inhibition of human SNB75 cells after 48 hrs by sulforhodamine B assay; details: SNB-75, 48 h
Malme-3M = assay: Growth inhibition of human MALME-3M cells after 48 hrs by sulforhodamine B assay
HCT-15 = assay: Growth inhibition of human HCT15 cells after 48 hrs by sulforhodamine B assay; details: HCT-15, 48 h
LOX IMVI = assay: Growth inhibition of human LOXIMVI cells after 48 hrs by sulforhodamine B assay
NCI-H226 = assay: Growth inhibition of human NCI-H226 cells after 48 hrs by sulforhodamine B assay; details: NCI-H226, 48 h

GI50 (A549): 0.32 µM
GI50 (SK-MEL-28): 1.61 µM
GI50 (NCI-H460): 0.3 µM
GI50 (SW-620): 1.15 µM
GI50 (U-251): 1.27 µM
GI50 (SK-MEL-5): 0.38 µM
GI50 (NCI-H322M): 0.28 µM
GI50 (NCI-H522): 1.41 µM
GI50 (HCT-116): 0.68 µM
GI50 (MDA-MB-435): 0.2 µM
GI50 (SK-MEL-2): 1.57 µM
GI50 (COLO 205): 1.01 µM
GI50 (HT-29): 1.14 µM
GI50 (NCI-H23): 0.62 µM
GI50 (HCT-15): 1.61 µM
GI50 (NCI-H226): 0.51 µM
SMILES: Cn1n[n+](C)c2c1C(=O)c1ccccc1C2=O
GI50 (SF-295): 1.05 µM
GI50 (UACC-257): 1.79 µM
GI50 (SF-539): 1.35 µM
GI50 (SF-268): 0.95 µM
GI50 (KM12): 0.79 µM
GI50 [1]: 1.24 µM
GI50 (HOP-62): 1.54 µM
GI50 [2]: 1.21 µM
GI50 (SNB-19): 1.59 µM
GI50 (M14): 0.68 µM
GI50 (SNB-75): 1.68 µM
GI50 (Malme-3M): 0.15 µM
GI50 (LOX IMVI): 0.5 µM
